≈ marks a conversion by molar mass, not a printed value.
How the values were obtained:
Format in all cases: functional
[1] = system: Enterococcus faecium; assay: In vitro antibacterial activity against vancomycin-resistant Enterococcus faecium C6487 (VRE).
[2] = system: Staphylococcus epidermidis; assay: In vitro antibacterial activity against Staphylococcus epidermis (S.e.1) […].
[3] = system: Enterococcus faecium; assay: In vitro antibacterial activity against Enterococcus faecium C6301 (E.f.2).
[4] = system: Staphylococcus aureus; assay: In vitro antibacterial activity against methicillin-resistant Staphylococcus aureus (MRSA) C6068.
[5] = system: Streptococcus pyogenes; assay: In vitro antibacterial activity against Streptococcus pyogenes C6003 (S.p.2).
[6] = system: Staphylococcus aureus; assay: In vitro antibacterial activity against methicillin-susceptible Staphylococcus aureus (MSSA) C2214.
[7] = system: Staphylococcus aureus; assay: In vitro antibacterial activity against Staphylococcus aureus (S. a.) ATCC 29213.
[8] = system: Streptococcus pyogenes; assay: In vitro antibacterial activity against Streptococcus pyogenes ATCC 8668 (S.p.1).
[9] = system: Enterococcus faecalis; assay: In vitro antibacterial activity against Enterococcus faecalis C6291 (E.f.1).
[10] = system: Staphylococcus epidermidis; assay: In vitro antibacterial activity against Staphylococcus epidermis (S.e.2) C2235.
[11] = system: Staphylococcus aureus; assay: In vitro antibacterial activity against ciprofloxacin-resistant Staphylococcus aureus (CRSA) C6043.

Structure (SMILES)	MIC [1] [µg/mL]	MIC [2] [µg/mL]	MIC [3] [µg/mL]	MIC [4] [µg/mL]	MIC [5] [µg/mL]	MIC [6] [µg/mL]	MIC [7] [µg/mL]	MIC [8] [µg/mL]	MIC [9] [µg/mL]	MIC [10] [µg/mL]	MIC [11] [µg/mL]
CC(=O)NC[C@H]1CN(c2ccc(N3CCN(C(=O)c4cc(C(F)(F)F)no4)CC3)c(F)c2)C(=O)O1	4 (≈ 8.01 µM)	2 (≈ 4 µM)	4 (≈ 8.01 µM)	2 (≈ 4 µM)	1 (≈ 2 µM)	4 (≈ 8.01 µM)	4 (≈ 8.01 µM)	1 (≈ 2 µM)	4 (≈ 8.01 µM)	2 (≈ 4 µM)	4 (≈ 8.01 µM)
CC(=O)NC[C@H]1CN(c2ccc(N3CCN(C(=O)c4cc(-c5nccs5)no4)CC3)c(F)c2)C(=O)O1	0.5 (≈ 0.972 µM)	0.5 (≈ 0.972 µM)	1 (≈ 1.94 µM)	0.5 (≈ 0.972 µM)	0.5 (≈ 0.972 µM)	1 (≈ 1.94 µM)	2 (≈ 3.89 µM)	0.25 (≈ 0.486 µM)	1 (≈ 1.94 µM)	0.5 (≈ 0.972 µM)	0.5 (≈ 0.972 µM)
CC(=O)NC[C@H]1CN(c2ccc(N3CCN(C(=O)c4cc(C(=O)N(C)C)no4)CC3)c(F)c2)C(=O)O1	4 (≈ 7.96 µM)	2 (≈ 3.98 µM)	4 (≈ 7.96 µM)	2 (≈ 3.98 µM)	1 (≈ 1.99 µM)	8 (≈ 15.9 µM)	8 (≈ 15.9 µM)	1 (≈ 1.99 µM)	4 (≈ 7.96 µM)	2 (≈ 3.98 µM)	8 (≈ 15.9 µM)
CC(=O)NC[C@H]1CN(c2ccc(N3CCN(C(=O)c4ccno4)CC3)c(F)c2)C(=O)O1	22 (≈ 51 µM)	1 (≈ 2.32 µM)	1 (≈ 2.32 µM)	1 (≈ 2.32 µM)	0.5 (≈ 1.16 µM)	2 (≈ 4.64 µM)	2 (≈ 4.64 µM)	0.5 (≈ 1.16 µM)	2 (≈ 4.64 µM)	1 (≈ 2.32 µM)	2 (≈ 4.64 µM)
CC(=O)NC[C@H]1CN(c2ccc(N3CCN(C(=O)c4cc(C#N)no4)CC3)c(F)c2)C(=O)O1	1 (≈ 2.19 µM)	0.5 (≈ 1.1 µM)	1 (≈ 2.19 µM)	1 (≈ 2.19 µM)	0.25 (≈ 0.548 µM)	2 (≈ 4.38 µM)	2 (≈ 4.38 µM)	0.25 (≈ 0.548 µM)	2 (≈ 4.38 µM)	0.5 (≈ 1.1 µM)	2 (≈ 4.38 µM)
COc1cc(C(=O)N2CCN(c3ccc(N4C[C@H](CNC(C)=O)OC4=O)cc3F)CC2)on1	2 (≈ 4.33 µM)	0.5 (≈ 1.08 µM)	2 (≈ 4.33 µM)	2 (≈ 4.33 µM)	0.5 (≈ 1.08 µM)	4 (≈ 8.67 µM)	4 (≈ 8.67 µM)	0.5 (≈ 1.08 µM)	2 (≈ 4.33 µM)	0.5 (≈ 1.08 µM)	4 (≈ 8.67 µM)
CC(=O)NC[C@H]1CN(c2ccc(N3CCN(C(=O)c4cc(-c5cnsn5)no4)CC3)c(F)c2)C(=O)O1	1 (≈ 1.94 µM)	1 (≈ 1.94 µM)	2 (≈ 3.88 µM)	1 (≈ 1.94 µM)	0.5 (≈ 0.97 µM)	4 (≈ 7.76 µM)	4 (≈ 7.76 µM)	0.5 (≈ 0.97 µM)	2 (≈ 3.88 µM)	1 (≈ 1.94 µM)	2 (≈ 3.88 µM)
CC(=O)NC[C@H]1CN(c2ccc(N3CCN(Cc4cc(-c5cccs5)no4)CC3)c(F)c2)C(=O)O1	22 (≈ 44 µM)	4 (≈ 8.01 µM)	2 (≈ 4 µM)	4 (≈ 8.01 µM)	1 (≈ 2 µM)	4 (≈ 8.01 µM)	4 (≈ 8.01 µM)	1 (≈ 2 µM)	2 (≈ 4 µM)	1 (≈ 2 µM)	2 (≈ 4 µM)

— ChEMBL document CHEMBL1131977, “Synthesis and in vitro activity of new oxazolidinone antibacterial agents having substituted isoxazoles” (1999)
